Here are results for four molecules from US6358967B1, “Ergoline amine derivatives with blood pressure lowering effect” (priority 1998, dated 2002).

In one data set the test system is normotensive Wistar rats. The data set is described as follows: Invasive blood pressure measurement in anesthetized rats, i.v. administration. In kind it is in vivo, rat. The following applies: 0.5 mg/kg i.v., Table 1.1; for Effect pressure/duration: duration: assessment class of duration; for Effect pressure/duration: pressure: assessment class of pressure fall; for Heart rate: change shown as arrow; for Heart rate / Duration: Wistar rats; for Duration: duration of blood pressure effect; for Diastol. pressure / Mean pressure / Systol. pressure: effect (fall) on arterial blood pressure, anesthetized Wistar rats. As for the experimental part:
Male Wistar rats with a body weight (BW) of 300-450 g were used as experimental animals. The rats are anesthetized immediately before the experiment with 50 mg/kg pentobarbital Na intraperitoneally (i.p.) or 70 mg/kg inactin i.v. PE tubes are tied into the carotid artery and femoral vein.
(§1) To maintain the blood pressure and to prevent formation of thrombi in the PE tubes of the blood vessels, each hour 2.5 ml of heparinized 0.9% strength NaCl solution are infused through the femoral vein and 1.2 ml through the carotid artery.
The arterial blood pressure is measured invasively using a PONEMAH hemodynamic analyzer (HSE, March, Germany). Via the tube in the carotid artery, the arterial blood pressure is mechanoelectrically converted in a Statham transducer (ISOTEC), amplified in a Plugsys (DBA module, type 660), digitized in an A/D converter and input into the PC memory over defined time intervals. The values in the memory are then treated with an adapted algorithm in order to establish the blood pressure parameters to be calculated for heart rate, systolic, diastolic and mean blood pressure.
(§2) The ergoline derivatives are administered i.v. through the femoral vein as 5 percent EtOH/NaCl (0.9%) solution, 1 ml/kg in a dosage of 0.5 mg/kg test substance.

Data set [1] relates to normotensive Wistar rats after pretreatment with Ecolid. Description: Blood pressure testing after blockade of autonomic nerve tracts with Ecolid. In kind it is in vivo, rat. The following applies: Table 2; for Effect pressure/duration: duration: assessment class of duration; for Effect pressure/duration: duration / Effect pressure/duration: pressure: after Ecolid; for Effect pressure/duration: duration / Effect pressure/duration: pressure / Heart rate / Duration: 0.5 mg/kg i.v.; for Effect pressure/duration: pressure: assessment class of pressure fall; for Heart rate: change shown as arrow; for Heart rate / Duration: rats pretreated with Ecolid; for Diastol. pressure / Mean pressure / Systol. pressure: effect (fall) on arterial blood pressure, Wistar rats pretreated with Ecolid 0.5 mg/kg i.v., test substance 0.5 mg/kg i.v.
Text: Ecolid is a ganglionic blocker which competitively blocks the postsynaptic cholinergic (nicotinergic) receptors in the autonomic ganglia. This interrupts neurotransmission in the ganglia in both the para-sympathetic and sympathetic regions of the autonomic nervous system. The consequence thereof is, inter alia, a fall in blood pressure. It is possible in this way to differentiate central and peripheral (i.e. direct points of action on the smooth muscles) effects.
The experimental animals used were male Wistar rats with a BW of 300-450 g. The rats are anesthetized immediately before the experiment with 70 mg/kg inactin i.v. PE tubes are tied into the carotid artery and femoral vein.
as §1
Before testing the ergoline derivatives, the experimental animals were treated with Ecolid (dose: 0.5 mg/kg, i.v.).
as §2
The time stated in the table corresponds to the period between administration of Ecolid and injection of the test substances.

For the molecule `CN1CC(CNC(=O)c2ccc(C(=O)NCc3cccc(CN)c3)cc2)CC2c3cccc4[nH]cc(c34)CC21.O=C(O)C(F)(F)F.O=C(O)C(F)(F)F` (stereo not drawn) [Substance 9703126], in the data set with normotensive Wistar rats, the “Effect pressure/duration: duration” value is recorded as “↓↓↓/↓↓↓ (>30 min)”, the “Effect pressure/duration: pressure” value is “↓↓↓/↓↓↓ (>30%)”, the Heart rate result is given as “→” and the Duration is recorded as more than 60 min. Also, in the data set with normotensive Wistar rats, the Diastol. pressure is recorded as 63.0%, the Mean pressure turned out to be 60.0% and the Systol. pressure was 55.0%. For the same molecule, in data set [1], the “Effect pressure/duration: duration” value is listed as “↓↓↓/↓↓↓ (> 30 min)”, the “Effect pressure/duration: pressure” value is listed as “↓↓↓/↓↓↓ (> 30%)”, the Heart rate entry was “→” and the Diastol. pressure turned out to be 48.7%. For the same molecule, in data set [1], the Mean pressure stood at 43.7%, the “Systol. pressure” value stood at 36.4% and the Duration is more than 120 min.
Turning to `CN1C[C@H](CN2CCC(=O)NC2=O)C[C@@H]2c3cccc4[nH]cc(c34)C[C@H]21` [Dihydro-1-[[6-methyl-ergolin-8b-yl]-methyl]2,4-(1H, 3H)-pyrimidinedione, reference compound], in the data set on normotensive Wistar rats, the “Effect pressure/duration: duration” value was “↓ (up to 10 min)”, the “Effect pressure/duration: pressure” value was “↓↓↓ (>30%)”, the Heart rate entry is given as “→” and the Duration entry is on record as “ca 10 min”. Further, in the data set on normotensive Wistar rats, the Diastol. pressure turned out to be 75.9%, the Mean pressure turned out to be 72.3% and the Systol. pressure amounted to 70.9%. In data set [1], the “Effect pressure/duration: duration” value is given as “→/→ (no effect to 5%)”, the “Effect pressure/duration: pressure” value is “→/→ (no effect to 5%)”, the Heart rate result was “→” and the Diastol. pressure is on record as 0%. Besides, in data set [1], the Mean pressure was found to be 0%, the “Systol. pressure” value is 0% and the Duration was found to be 0 min.
In the case of `C[N+](C)(C)CC[N+]1(C)Cc2c(Cl)c(Cl)c(Cl)c(Cl)c2C1.[Cl-].[Cl-]` [Ecolid, reference compound], in data set [1], the “Effect pressure/duration: duration” value was “↓↓↓/↓↓↓ (> 30 min)”, the “Effect pressure/duration: pressure” value is given as “↓↓↓/↓↓↓ (> 30%)”, the Heart rate result is listed as “→” and the Diastol. pressure stood at 54.7%. Besides, in data set [1], the Mean pressure was determined as 50.4% and the “Systol. pressure” value turned out to be 52.6%.
As for `CN1CC(CNC(=O)C2CCC(C(=O)NCc3cccc(CN)c3)CC2)CC2c3cccc4[nH]cc(c34)CC21.O=C(O)C(F)(F)F.O=C(O)C(F)(F)F` (mixture of isomers) [Substance 9703131], in the data set on normotensive Wistar rats, the “Effect pressure/duration: duration” value was “↓↓↓/↓↓↓ (>30 min)”, the “Effect pressure/duration: pressure” value was “↓↓↓/↓↓↓ (>30%)”, the Heart rate entry is on record as “→” and the Duration was more than 240 min. In the data set with normotensive Wistar rats, the Diastol. pressure is given as 55.2%, the Mean pressure worked out at 51.6% and the Systol. pressure is 47.5%. For the same molecule, in data set [1], the “Effect pressure/duration: duration” value is reported as “↓↓↓/↓↓↓ (> 30 min)”, the “Effect pressure/duration: pressure” value is “↓↓↓/↓↓↓ (> 30%)”, the Heart rate result is listed as “→” and the Diastol. pressure is on record as 40.4%. For the same molecule, in data set [1], the Mean pressure stood at 32.4%, the “Systol. pressure” value turned out to be 32.9% and the Duration is more than 60 min.
